Data on 19 compounds can be found in patent US9309227B2, “N-biphenylmethylbenzimidazole modulators of PPARG” (The Scripps Research Institute, priority 2011, dated 2016).

For one assay, the target named is T1, GST-PPARG-LBD (Homo sapiens, UniProt P37231).
T1 construct: A mixture of 5 nM GST-PPARG-LBD; purchased Invitrogen
T1 sequence (P37231 238-503 limits assumed): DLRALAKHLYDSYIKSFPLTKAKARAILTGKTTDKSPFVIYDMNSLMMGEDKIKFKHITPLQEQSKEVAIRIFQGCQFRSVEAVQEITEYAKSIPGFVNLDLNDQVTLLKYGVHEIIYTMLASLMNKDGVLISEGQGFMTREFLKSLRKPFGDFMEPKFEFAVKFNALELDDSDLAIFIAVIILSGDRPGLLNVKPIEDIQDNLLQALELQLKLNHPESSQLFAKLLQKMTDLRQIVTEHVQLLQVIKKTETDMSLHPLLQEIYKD
In words: Lanthascreen PPARG competitive binding assay (Invitrogen). The note with it: Table 3; read-out: IC50 (nM) Lantha. Here is the method:
Lanthascreen PPARG Competitive Binding Assay (Invitrogen)
The assay was performed according to manufacturer protocol. A mixture of 5 nM GST-PPARG-LBD, 5 nM Tb-GST-antibody, […] Pan-PPAR Green, and serial dilutions of the experimental compound, beginning at 10 μM downwards, was added to wells of black 384-well low-volume plates (Greiner) to a total volume of 18 μL. All dilutions were made in TR-FRET assay buffer C. DMSO at 2% final concentration was used as a no-ligand control. Experiment was performed in triplicate, and incubated tier 2 hours in the dark prior to assay read in Perkin Elmer ViewLux ultra HTS microplate reader. FRET signal was measured by excitation at 340 nm and emission at 520 nm for fluorescein and […] for terbium. Fold change over DMSO was calculated using GraphPad Prism Software (La Jolla, Calif.) by calculating 520 nm/490 nm ratio. Graphs were plotted as fold change of FRET signal for compound treatment over DMSO-only control.

Assay [1] has as its target T2, PPARG (Homo sapiens, UniProt P37231).
T2 sequence (P37231 204-505): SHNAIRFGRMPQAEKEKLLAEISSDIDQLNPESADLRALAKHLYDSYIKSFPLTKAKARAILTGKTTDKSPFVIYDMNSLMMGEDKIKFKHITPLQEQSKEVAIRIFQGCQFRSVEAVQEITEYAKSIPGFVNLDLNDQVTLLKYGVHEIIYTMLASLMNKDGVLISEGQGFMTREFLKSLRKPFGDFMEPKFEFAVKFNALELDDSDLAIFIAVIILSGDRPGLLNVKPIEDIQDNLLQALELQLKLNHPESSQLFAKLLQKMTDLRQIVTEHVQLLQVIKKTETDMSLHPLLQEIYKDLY
In words: Gal 4 assay (ED50 and % act). Format: cell-based. The note with it: for activation at 1 µM: read-out: GL 4% act 1 μM; for activation at 10 µM: read-out: GL 4% act 10 μM.

Assay [2] addresses T3, PPARG (UniProt P37231).
T3 construct: PPRE % act 1 μM; other: 1 μM
T3 sequence (P37231 1-505): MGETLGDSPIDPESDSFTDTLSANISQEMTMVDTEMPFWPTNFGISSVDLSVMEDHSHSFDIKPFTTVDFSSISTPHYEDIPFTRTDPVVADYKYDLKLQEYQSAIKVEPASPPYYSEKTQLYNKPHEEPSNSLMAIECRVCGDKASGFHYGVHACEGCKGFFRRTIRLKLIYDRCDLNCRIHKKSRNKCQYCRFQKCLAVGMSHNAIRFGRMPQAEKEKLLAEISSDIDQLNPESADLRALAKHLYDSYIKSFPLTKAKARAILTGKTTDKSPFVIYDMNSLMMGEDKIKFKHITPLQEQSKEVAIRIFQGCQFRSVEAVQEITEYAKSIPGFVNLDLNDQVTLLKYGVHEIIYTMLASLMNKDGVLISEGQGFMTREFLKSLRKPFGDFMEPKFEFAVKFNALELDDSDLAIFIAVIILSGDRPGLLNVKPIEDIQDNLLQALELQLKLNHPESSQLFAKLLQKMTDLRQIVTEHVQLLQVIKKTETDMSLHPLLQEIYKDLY
In words: Cell-based transactivation assay (PPRE-luciferase reporter co-transfected with PPARG in COS-1 cells). Further details: species or system human or mouse. Here is the method: (§1) Cell-Based Transactivation Assay:
(§2) PPRE is a DNA that contains a binding site for PPARG; thus PPRE is a PPAR response element, used herein as a promoter reporter. The binding site is a DR1 response element with the sequence AGGTCA repeated 3 times in tandem and then fused to a construct for luciferase.
(§3) Thus, PPRE is the basis of the cell based transactivation assay described below. The plasmid DNA is co-transfected along with a plasmid for PPARG into COS-1 cells. After an overnight incubation, cells are treated with DMSO or compounds.
(§4) Confluent COS-1 cells were transfected with 4.5 μg murine PPARg2-pSV Sport. or full-length human PPARg-pSport6, 4.5 μg 3×PPRE-luciferase reporter and 27 μL X-treme Gene 9 transfection reagent in serum-free opti-mem media (Gibco), followed by overnight incubation at 37° C., 5% CO2. Transfected cells were plated in white Perkin Elmer 384-well plates and incubated 4 hours. […] After 18 hour incubation, treated cells were developed with Brite Lite Plus (Perkin Elmer) and read in 384-well Luminescence Perkin Elmer En Vision Multilabel plate reader. Graphs were plotted in triplicate in GraphPad Prism Software as fold change of treated cells over DMSO control cells.

The test system of assay [3] is PPARG. The assay is described as above. Further details: species or system human or mouse. Conditions: COS-1 cells. The method, then:
as §1, §2, §3, §4

On to `CC(C)CCC(C)NC(=O)c1ccc2c(c1)ncn2Cc1ccc(-c2ccccc2C(=O)O)cc1` (centres unmarked) [Compound 13, 4′-((5-(5-methylhexan-2-ylcarbamoyl)-1H-benzo[d]imidazol-1-yl)methyl)biphenyl-2-carboxylic acid], for which the 50% inhibitory concentration (IC50) at GST-PPARG-LBD was found to be 26.7 nM. At PPARG [1], the activation at 1 µM was 22.5% and the activation at 10 µM was 60.5%.
For `CC(C)CC(C)NC(=O)c1ccc2c(c1)ncn2Cc1ccc(-c2ccccc2C(=O)O)cc1` (centres unmarked) [Compound 14, 4′((5-((4-methylpentan-2-yl)carbamoyl)-1H-benzo[d]imidazol-1-yl)methyl)-[1,1′-biphenyl]-2-carboxylic acid] the same measures were 102 nM, 7.71% and 32.2%.
In the case of `COCCCNC(=O)c1ccc2c(c1)ncn2Cc1ccc(-c2ccccc2C(=O)O)cc1` [Compound 15, 4′-((5-(3-methoxypropylcarbamoyl)-1H-benzo[d]imidazol-1-yl)methyl)biphenyl-2-carboxylic acid], at GST-PPARG-LBD, the half-inhibitory concentration (IC50) was found to be 15000 nM.
Still for that read-out and setting: the value for `CCOCCNC(=O)c1ccc2c(c1)ncn2Cc1ccc(-c2ccccc2C(=O)O)cc1` [Compound 16, 4′-((5-(2-ethoxyethylcarbamoyl)-1H-benzo[d]imidazol-1-yl)methyl)biphenyl-2-carboxylic acid] was 9790 nM; that for `O=C(NCC1CC1)c1ccc2c(c1)ncn2Cc1ccc(-c2ccccc2C(=O)O)cc1` [Compound 17, 4′-((5 ((cyclopropylmethyl)carbamoyl)-1H-benzo[d]imidazol-1-yl)methyl)-[1,1′-biphenyl]-2-carboxylic acid] was 22100 nM.
Still for that read-out and setting: next, `CC(C)CCNC(=O)c1ccc2c(c1)ncn2Cc1ccc(-c2ccccc2C(=O)O)cc1` [Compound 18, 4′-((5-(isopentylcarbamoyl)-1H-benzo[d]imidazol-1-yl)methyl)-[1,1′-biphenyl]-2-carboxylic acid]: 2430 nM; `CC(C)CC(C)NC(=O)c1ccc2ncn(Cc3ccc(-c4ccccc4C(=O)O)cc3)c2c1` (centres unmarked) [Compound 19, 4′-((6-(4-methylpentan-2-ylcarbamoyl)-1H-benzo[d]imidazol-1-yl)methyl)biphenyl-2-carboxylic acid]: 9.02 nM.
On the same count and under the same terms, next, `CC(C)CCC(C)NC(=O)c1ccc2ncn(Cc3ccc(-c4ccccc4C(=O)O)cc3)c2c1` (centres unmarked) [Compound 20]: 2550 nM.
For the compound `CC(C)c1cccc([C@H](C)NC(=O)c2ccc3c(c2)ncn3Cc2ccc(-c3ccccc3CO)cc2)c1` [Compound 21, (S)-1-((2′-(hydroxymethyl)biphenyl-4-yl)methyl)-N-(1-(3-isopropylphenyl)ethyl)-1H-benzo[d]imidazole-5-carboxamide], the IC50 at GST-PPARG-LBD turned out to be 6490 nM.
Take `CC(C)c1cccc([C@H](C)NC(=O)c2ccc3c(c2)ncn3Cc2ccc(-c3ccccc3C(=O)O)cc2)c1` [Compound 22, (S)-4′-((5-(1-(3-isopropylphenyl)ethylcarbamoyl)-1H-benzo[d]imidazol-1-yl)methyl)biphenyl-2-carboxylic acid]: on GST-PPARG-LBD, the IC50 was 1830 nM.
On to `CC(C)c1cccc([C@H](C)NC(=O)c2ccc3c(c2)ncn3Cc2ccc(-c3ccccc3C(=O)O)cc2)c1` [Compound 23], for which the IC50 at GST-PPARG-LBD stood at 683 nM. Further, the activation at 1 µM on PPARG [1] was 12.9%. Further, the “PPRE % act 1 μM” value at PPARG [2] (1 μM) is on record as −10.26%. For the same compound, a half-maximal effect at PPARG [2] (Table 3) (EC50) was put at 1.61 nM.
Consider `CC(C)c1cccc([C@H](C)NC(=O)c2ccc3c(c2)ncn3Cc2ccc(-c3cccnc3C(=O)O)cc2)c1` [Compound 24, (S)-3-(4-((5-(1-(3-isopropylphenyl)ethylcarbamoyl)-1H-benzo[d]imidazol-1-yl)methyl)phenyl)picolinic acid], for which the IC50 at GST-PPARG-LBD came out at 2130 nM.
Still for that read-out and setting: the value for `Cc1nc2cc(C(=O)N[C@@H](C)c3cccc(C(C)C)c3)ccc2n1Cc1ccc(-c2ccccc2C(O)C(F)(F)F)cc1` (stereo partly drawn) [Compound 25, N—((S)-1-(3-isopropylphenyl)ethyl)-2-methyl-1-((2′-(2,2,2-trifluoro-1-hydroxyethyl)biphenyl-4-yl)methyl)-1H-benzo[d]imidazole-5-carboxamide] was 5470 nM; that for `CC(C)c1cccc([C@H](C)NC(=O)c2ccc3c(c2)ncn3Cc2ccc(-c3ccccc3C(O)C(F)(F)F)cc2)c1` (stereo partly drawn) [Compound 26, N—((S)-1-(3-isopropylphenyl)ethyl)-1-((2′-(2,2,2-trifluoro-1-hydroxyethyl)biphenyl-4-yl)methyl)-1H-benzo[d]imidazole-5-carboxamide] was 15700 nM.
On the same count and under the same terms, next, `CC(C)c1cccc([C@H](C)NC(=O)c2ccc3c(c2)ncn3Cc2ccc(-c3ccccc3C(=O)O)nc2)c1` [Compound 27, (S)-2-(5-((5-((1-(3-isopropylphenyl)ethyl)carbamoyl)-1H-benzo[d]imidazol-1-yl)methyl)pyridin-2-yl)benzoic acid]: 8740 nM.
Still for that read-out and setting: the value for `COC(=O)c1ccccc1-c1ccc(Cn2cnc3cc(C(=O)N[C@@H](C)c4cccc(C(C)C)c4)ccc32)cn1` [Compound 28, (S)-methyl 2-(5-((5-((1-(3-isopropylphenyl)ethyl)carbamoyl)-1H-benzo[d]imidazol-1-yl)methyl)pyridin-2-yl)benzoate] was 9070 nM; that for `Cc1nc2cc(C(=O)N[C@@H](C)c3cccc(C(C)C)c3)ccc2n1Cc1ccc(-c2cccnc2C(=O)O)cc1` [Compound 29, (S)-3-(4-((5-(1-(3-isopropylphenyl)ethylcarbamoyl)-2-methyl-1H-benzo[d]imidazol-1-yl)methyl)phenyl)picolinic acid] was 4800 nM.
As to `CN(CCOc1ccc(CC2SC(=O)NC2=O)cc1)c1ccccn1` (centres unmarked) [rosiglitazone, reference compound], the “activation of the PPRE reporter” value with PPARG [3] is listed as “about 5 fold”.
In the case of MRL24 [reference compound], the “transactivation of the reporter, of rosiglitazone response” value with PPARG [3] (relative to rosiglitazone) is recorded as “about 25%”.
